Reference: patent publication US10670605B2, “Cysteine reactive probes and uses thereof” (The Scripps Research Institute, priority 2015, dated 2020)
“Also recorded” adds a separate entry of the source. Values belong to the molecule of their own block, whether it stands above or below them.

Tests used:
Assay in all cases: Competitive isoTOP-ABPP in situ (fragment-treated cells)
[1] = target: T1, cysteines in MDA-MB-231 and Ramos cells (Homo sapiens, UniProt Q9HA64); format: cell-based
T1 sequence (Q9HA64 1-309): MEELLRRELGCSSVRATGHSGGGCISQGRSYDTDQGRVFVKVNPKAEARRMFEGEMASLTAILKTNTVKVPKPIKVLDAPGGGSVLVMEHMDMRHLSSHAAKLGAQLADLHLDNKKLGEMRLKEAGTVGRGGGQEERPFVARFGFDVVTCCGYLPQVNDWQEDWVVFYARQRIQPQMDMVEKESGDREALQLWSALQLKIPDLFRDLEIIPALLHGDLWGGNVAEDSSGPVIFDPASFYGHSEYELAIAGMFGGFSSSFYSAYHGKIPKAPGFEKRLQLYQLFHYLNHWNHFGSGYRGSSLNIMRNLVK

[2] = target: cysteines in MDA-MB-231 and Ramos cells (Homo sapiens, UniProt Q6PCB5); format: cell-based; details: 200 μM, insitu
Sequence of cysteines in MDA-MB-231 and Ramos cells (Homo sapiens, UniProt Q6PCB5) (Q6PCB5 whole entry): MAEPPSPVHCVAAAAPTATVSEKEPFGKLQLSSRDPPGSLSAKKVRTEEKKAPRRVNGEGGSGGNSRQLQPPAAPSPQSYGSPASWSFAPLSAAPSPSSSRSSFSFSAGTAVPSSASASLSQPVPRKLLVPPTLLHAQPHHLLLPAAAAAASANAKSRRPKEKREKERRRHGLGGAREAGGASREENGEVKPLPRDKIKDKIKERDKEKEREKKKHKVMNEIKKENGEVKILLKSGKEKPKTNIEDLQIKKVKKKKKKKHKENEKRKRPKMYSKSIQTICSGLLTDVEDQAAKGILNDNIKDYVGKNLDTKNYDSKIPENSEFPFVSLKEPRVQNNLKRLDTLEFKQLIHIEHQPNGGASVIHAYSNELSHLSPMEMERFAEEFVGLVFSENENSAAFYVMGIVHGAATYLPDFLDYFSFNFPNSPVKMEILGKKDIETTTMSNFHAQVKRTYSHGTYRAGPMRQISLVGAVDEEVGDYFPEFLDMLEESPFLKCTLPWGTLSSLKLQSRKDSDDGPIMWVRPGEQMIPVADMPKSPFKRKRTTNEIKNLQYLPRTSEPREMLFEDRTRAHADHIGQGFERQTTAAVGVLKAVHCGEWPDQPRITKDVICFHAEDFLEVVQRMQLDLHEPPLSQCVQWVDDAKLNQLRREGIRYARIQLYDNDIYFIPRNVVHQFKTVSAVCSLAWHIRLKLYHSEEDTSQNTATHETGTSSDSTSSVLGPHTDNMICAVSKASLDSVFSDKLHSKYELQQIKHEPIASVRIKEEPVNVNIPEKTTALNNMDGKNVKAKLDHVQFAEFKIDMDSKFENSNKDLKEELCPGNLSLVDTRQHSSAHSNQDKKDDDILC

[3] = target: cysteines in MDA-MB-231 and Ramos cells (Homo sapiens, UniProt O95881); format: cell-based; details: 200 μM, insitu, 231
Sequence of cysteines in MDA-MB-231 and Ramos cells (Homo sapiens, UniProt O95881) (O95881 27-172): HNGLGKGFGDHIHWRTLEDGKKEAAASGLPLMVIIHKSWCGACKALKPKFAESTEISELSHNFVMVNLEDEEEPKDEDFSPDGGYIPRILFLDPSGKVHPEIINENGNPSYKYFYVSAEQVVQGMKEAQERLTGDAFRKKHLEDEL

[4] = target: T2, cysteines in MDA-MB-231 and Ramos cells (Homo sapiens, UniProt P05091); format: cell-based
T2 sequence (P05091 18-517): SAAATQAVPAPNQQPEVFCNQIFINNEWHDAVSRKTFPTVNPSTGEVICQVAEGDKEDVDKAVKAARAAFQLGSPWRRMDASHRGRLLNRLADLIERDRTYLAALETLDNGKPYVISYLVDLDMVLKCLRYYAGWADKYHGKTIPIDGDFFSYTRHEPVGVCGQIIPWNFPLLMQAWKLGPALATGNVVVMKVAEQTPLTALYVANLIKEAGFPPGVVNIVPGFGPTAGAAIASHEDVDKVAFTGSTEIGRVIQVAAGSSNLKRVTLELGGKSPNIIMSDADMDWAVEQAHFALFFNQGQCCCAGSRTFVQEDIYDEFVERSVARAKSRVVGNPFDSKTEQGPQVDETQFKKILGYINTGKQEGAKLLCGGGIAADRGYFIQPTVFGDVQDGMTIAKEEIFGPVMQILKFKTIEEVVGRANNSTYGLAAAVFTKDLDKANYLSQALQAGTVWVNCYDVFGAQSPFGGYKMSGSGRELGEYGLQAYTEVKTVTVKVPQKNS

[5] = target: T3, cysteines in MDA-MB-231 and Ramos cells (Homo sapiens, UniProt Q8TD19); format: cell-based; details: 200 μM, insitu
T3 sequence (Q8TD19 1-979): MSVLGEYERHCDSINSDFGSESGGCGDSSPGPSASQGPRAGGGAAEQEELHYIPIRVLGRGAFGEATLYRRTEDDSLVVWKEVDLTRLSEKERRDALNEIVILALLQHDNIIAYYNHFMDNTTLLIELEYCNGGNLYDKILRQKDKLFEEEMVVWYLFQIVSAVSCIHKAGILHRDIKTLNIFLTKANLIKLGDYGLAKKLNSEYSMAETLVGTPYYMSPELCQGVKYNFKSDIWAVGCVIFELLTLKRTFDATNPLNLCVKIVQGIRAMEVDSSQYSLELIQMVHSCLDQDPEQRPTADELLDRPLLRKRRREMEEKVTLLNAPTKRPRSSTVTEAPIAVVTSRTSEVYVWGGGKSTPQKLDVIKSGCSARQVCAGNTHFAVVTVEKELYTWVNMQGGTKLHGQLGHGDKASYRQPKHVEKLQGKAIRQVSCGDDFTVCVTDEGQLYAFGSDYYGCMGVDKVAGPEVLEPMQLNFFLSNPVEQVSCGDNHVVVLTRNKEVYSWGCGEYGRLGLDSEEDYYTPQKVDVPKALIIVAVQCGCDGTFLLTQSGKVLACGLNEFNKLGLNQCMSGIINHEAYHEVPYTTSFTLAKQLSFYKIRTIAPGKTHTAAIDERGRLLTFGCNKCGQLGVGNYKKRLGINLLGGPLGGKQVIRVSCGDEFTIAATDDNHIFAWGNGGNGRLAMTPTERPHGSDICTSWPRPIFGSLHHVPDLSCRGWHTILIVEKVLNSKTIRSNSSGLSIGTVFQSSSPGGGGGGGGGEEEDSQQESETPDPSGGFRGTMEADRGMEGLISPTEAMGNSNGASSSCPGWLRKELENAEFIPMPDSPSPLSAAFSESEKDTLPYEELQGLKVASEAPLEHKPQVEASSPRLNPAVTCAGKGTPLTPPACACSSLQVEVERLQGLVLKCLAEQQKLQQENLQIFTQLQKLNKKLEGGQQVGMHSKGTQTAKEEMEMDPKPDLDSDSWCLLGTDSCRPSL

[6] = test system: cysteines in MDA-MB-231 and Ramos cells; format: cell-based, human
[7] = target: cysteines in MDA-MB-231 and Ramos cells (Homo sapiens, UniProt Q5UIP0); format: cell-based
Sequence of cysteines in MDA-MB-231 and Ramos cells (Homo sapiens, UniProt Q5UIP0) (Q5UIP0 whole entry): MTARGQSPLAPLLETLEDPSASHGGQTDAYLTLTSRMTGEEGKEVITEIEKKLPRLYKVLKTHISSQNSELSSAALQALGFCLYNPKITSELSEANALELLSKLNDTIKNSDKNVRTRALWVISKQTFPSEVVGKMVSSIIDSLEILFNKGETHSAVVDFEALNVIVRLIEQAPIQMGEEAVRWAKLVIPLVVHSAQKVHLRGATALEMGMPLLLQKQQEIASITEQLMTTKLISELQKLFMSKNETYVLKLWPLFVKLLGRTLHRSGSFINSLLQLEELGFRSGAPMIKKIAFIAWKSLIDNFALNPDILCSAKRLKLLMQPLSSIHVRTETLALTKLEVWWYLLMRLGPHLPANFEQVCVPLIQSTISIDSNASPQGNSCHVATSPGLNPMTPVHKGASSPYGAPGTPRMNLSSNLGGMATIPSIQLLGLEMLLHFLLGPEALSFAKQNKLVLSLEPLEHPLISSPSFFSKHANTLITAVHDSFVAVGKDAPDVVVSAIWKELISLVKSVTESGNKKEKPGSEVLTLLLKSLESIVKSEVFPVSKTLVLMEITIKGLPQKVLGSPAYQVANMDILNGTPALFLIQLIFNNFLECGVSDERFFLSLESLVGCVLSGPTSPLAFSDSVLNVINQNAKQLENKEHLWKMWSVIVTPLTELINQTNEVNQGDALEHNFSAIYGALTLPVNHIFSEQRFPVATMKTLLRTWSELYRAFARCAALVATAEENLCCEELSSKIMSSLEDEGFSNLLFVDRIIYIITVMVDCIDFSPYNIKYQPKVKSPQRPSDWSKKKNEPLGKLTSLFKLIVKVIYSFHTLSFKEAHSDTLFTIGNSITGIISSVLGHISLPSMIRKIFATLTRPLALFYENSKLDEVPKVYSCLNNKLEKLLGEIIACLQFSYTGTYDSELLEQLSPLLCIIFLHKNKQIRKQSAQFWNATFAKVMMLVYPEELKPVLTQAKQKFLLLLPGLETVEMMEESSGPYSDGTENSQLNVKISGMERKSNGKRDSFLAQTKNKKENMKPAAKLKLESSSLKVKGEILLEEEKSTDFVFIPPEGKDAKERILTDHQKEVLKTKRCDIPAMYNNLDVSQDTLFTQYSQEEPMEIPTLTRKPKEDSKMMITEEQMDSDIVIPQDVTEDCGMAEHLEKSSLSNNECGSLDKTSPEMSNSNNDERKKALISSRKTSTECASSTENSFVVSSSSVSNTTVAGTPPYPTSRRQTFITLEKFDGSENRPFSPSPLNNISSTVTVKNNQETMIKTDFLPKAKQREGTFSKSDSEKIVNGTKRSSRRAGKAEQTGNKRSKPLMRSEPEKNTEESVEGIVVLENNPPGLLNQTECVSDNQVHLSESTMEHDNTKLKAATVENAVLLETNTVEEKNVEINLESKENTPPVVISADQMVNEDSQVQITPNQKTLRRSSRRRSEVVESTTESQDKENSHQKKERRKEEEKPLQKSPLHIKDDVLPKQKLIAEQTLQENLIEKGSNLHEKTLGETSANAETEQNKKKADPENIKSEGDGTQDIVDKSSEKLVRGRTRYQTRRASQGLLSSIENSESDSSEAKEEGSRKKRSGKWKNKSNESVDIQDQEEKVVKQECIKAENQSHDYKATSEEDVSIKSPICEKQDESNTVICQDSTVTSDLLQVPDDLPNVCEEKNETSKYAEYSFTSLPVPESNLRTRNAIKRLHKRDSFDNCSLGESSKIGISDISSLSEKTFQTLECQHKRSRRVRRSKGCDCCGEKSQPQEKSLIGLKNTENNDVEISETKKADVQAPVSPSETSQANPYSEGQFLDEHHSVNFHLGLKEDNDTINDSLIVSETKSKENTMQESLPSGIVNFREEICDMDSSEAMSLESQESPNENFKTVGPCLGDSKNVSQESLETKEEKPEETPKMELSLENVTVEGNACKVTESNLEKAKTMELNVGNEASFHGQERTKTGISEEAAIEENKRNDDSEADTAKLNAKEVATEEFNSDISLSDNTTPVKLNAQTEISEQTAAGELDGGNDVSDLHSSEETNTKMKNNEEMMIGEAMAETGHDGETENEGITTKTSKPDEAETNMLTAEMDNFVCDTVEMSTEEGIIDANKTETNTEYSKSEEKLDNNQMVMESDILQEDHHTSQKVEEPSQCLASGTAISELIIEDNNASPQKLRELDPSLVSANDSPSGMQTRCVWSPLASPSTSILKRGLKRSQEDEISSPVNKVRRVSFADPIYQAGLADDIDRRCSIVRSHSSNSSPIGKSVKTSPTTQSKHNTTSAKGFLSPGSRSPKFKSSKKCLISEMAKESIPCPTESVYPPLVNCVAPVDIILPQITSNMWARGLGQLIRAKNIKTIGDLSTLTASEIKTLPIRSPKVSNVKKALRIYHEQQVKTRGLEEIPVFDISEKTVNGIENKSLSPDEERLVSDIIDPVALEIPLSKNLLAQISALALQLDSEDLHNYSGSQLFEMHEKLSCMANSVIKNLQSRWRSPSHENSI

[8] = target: cysteines in MDA-MB-231 and Ramos cells (Homo sapiens, UniProt O00541); format: cell-based
Sequence of cysteines in MDA-MB-231 and Ramos cells (Homo sapiens, UniProt O00541) (O00541 whole entry, looked up): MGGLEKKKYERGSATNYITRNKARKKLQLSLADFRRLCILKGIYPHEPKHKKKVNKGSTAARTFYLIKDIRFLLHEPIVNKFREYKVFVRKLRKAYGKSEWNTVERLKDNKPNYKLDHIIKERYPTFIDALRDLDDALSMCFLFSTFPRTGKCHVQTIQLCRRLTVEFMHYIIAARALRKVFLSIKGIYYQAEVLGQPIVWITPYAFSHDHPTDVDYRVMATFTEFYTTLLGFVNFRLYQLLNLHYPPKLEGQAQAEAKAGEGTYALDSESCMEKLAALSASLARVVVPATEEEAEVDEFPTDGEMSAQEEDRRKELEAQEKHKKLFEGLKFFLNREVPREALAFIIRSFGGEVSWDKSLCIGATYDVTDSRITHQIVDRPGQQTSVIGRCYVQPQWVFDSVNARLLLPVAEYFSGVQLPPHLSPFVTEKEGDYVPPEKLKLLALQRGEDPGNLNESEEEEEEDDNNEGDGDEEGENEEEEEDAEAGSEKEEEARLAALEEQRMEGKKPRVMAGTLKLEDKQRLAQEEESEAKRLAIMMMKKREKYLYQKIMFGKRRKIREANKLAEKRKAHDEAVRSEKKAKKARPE

[9] = target: T4, cysteines in MDA-MB-231 and Ramos cells (Homo sapiens, UniProt Q02556); format: cell-based; details: 200 μM, insitu, ramos
T4 sequence (Q02556 1-426): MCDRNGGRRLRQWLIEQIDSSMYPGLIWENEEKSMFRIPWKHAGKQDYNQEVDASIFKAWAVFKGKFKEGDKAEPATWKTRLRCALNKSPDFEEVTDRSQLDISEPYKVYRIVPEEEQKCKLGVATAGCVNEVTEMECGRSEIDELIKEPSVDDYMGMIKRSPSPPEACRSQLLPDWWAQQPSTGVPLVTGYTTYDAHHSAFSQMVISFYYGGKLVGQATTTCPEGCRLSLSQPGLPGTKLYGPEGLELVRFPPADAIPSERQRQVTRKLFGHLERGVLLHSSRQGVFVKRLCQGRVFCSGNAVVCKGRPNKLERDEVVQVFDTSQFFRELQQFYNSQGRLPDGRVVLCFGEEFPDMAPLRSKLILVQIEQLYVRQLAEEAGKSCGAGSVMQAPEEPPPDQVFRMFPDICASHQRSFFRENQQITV

isoTOP-ABPP reactivity Q9HA64_C24 FN3KRP ([1]; 200 μM, insitu, 231): 6.3
SMILES: COc1ccc2c(c1)CCCN2C(=O)CCl [compound 2]

isoTOP-ABPP ratio Q6PCB5_C280 [2]; 231: 1.0
SMILES: CC(C)CCOCCNC(=O)CCl [compound 27]

isoTOP-ABPP ratio, cysteine Q6PCB5_C280 [2]; 231: 20.0
isoTOP-ABPP ratio, cysteine O95881_C66 [3]: 20.0
isoTOP-ABPP ratio, cysteine P05091_C319 ([4]; 200 μM, insitu, 231): 20.0
SMILES: O=C(CCl)NC(=O)NC12CC3CC(CC(C3)C1)C2 [compound 12]

isoTOP-ABPP ratio, cysteine Q9HA64_C24 ([1]; 200 μM, insitu, 231): 0.6
isoTOP-ABPP ratio, cysteine Q5UIP0_C2298 ([7]; 200 μM, insitu, 231): 0.9
SMILES: O=C(CCl)NC12CC3CC(CC(C3)C1)C2 [compound 21]
isoTOP-ABPP ratio, cysteine Q8TD19_C623 [5]; 231: 0.8
isoTOP-ABPP ratio, cysteine E2QRD5_C183 ([6]; 200 μM, insitu, 231): 0.8

isoTOP-ABPP ratio, cysteine O00541_C272 ([8]; 100 μM in situ 231): 1.0
isoTOP-ABPP ratio, cysteine Q5UIP0_C2298 ([7]; 100 μM in situ 231): 1.3
SMILES: Cn1cc(S(=O)(=O)N2CCOCC2)cc1C(=O)NC(=O)CCl [compound 11]
isoTOP-ABPP ratio, cysteine E2QRD5_C183 ([6]; 100 μM in situ 231): 0.9
proteomic reactivity in situ (in words) ([6]; in situ, 2 h, versus in vitro): notably devoid of activity in situ; also recorded: notably lower reactivity in situ versus in vitro

isoTOP-ABPP ratio, cysteine O00541_C272 ([8]; 200 μM, insitu, 231): 1.4
isoTOP-ABPP ratio, cysteine Q02556_C306 [9]: 1.5
isoTOP-ABPP ratio, cysteine Q6PCB5_C280 ([2]; ramos): 0.8
isoTOP-ABPP ratio, cysteine O95881_C66 [3]: 20.0
SMILES: O=C(CCl)NCCc1c[nH]c2ccccc12 [compound 13]
isoTOP-ABPP ratio, cysteine Q8TD19_C623 ([5]; ramos): 20.0

The remaining lines, values behind:

SMILES: O=C(CCl)N1CCN(S(=O)(=O)c2ccccc2F)CC1 [compound 10]
isoTOP-ABPP ratio, cysteine Q5UIP0_C2298 ([7]; 200 μM, insitu, 231): 20.0

SMILES: Cc1ccc(C=C(C#N)C(=O)NCCN2CCOCC2)cc1 [compound 41]
isoTOP-ABPP ratio, O00541_C272 ([8]; 200 μM, insitu, 231): 0.9
isoTOP-ABPP ratio Q8TD19_C623 [5]; 231: 0.6
isoTOP-ABPP ratio E2QRD5_C183 ([6]; 200 μM, insitu, 231): 0.5
isoTOP-ABPP ratio O95881_C66 [3]: 1.0
isoTOP-ABPP ratio P05091_C319 ([4]; 200 μM, insitu, 231): 0.9

SMILES: CC1CCc2ccccc2N1C(=O)CCl (centres unmarked) [compound 45]
isoTOP-ABPP ratio P05091_C319 ([4]; 200 μM, insitu, 231): 20.0

SMILES: C=CC(=O)Nc1cc(F)c(N2CCN(C(=O)OC(C)(C)C)CC2)c(F)c1 [compound 38]
isoTOP-ABPP ratio Q9HA64_C24 ([1]; 200 μM, insitu, 231): 1.7
isoTOP-ABPP ratio O95881_C66 [3]: 1.0

SMILES: C=CC(=O)N(Cc1cccnc1)c1cc(C(F)(F)F)cc(C(F)(F)F)c1 [compound 31]
isoTOP-ABPP ratio, Q02556_C306 [9]: 2.0
isoTOP-ABPP ratio Q8TD19_C623 [5]; 231: 0.7
isoTOP-ABPP ratio Q8TD19_C623 ([5]; ramos): 1.4
isoTOP-ABPP ratio E2QRD5_C183 ([6]; 200 μM, insitu, 231): 0.8

SMILES: O=C(CCl)N1CCC(Cc2ccccc2)CC1 [compound 9]
isoTOP-ABPP reactivity Q9HA64_C24 FN3KRP ([1]; 200 μM, insitu, 231): 20.0

SMILES: COc1ccc(C2CC(c3cccs3)=NN2C(=O)CCl)cc1 (centres unmarked) [compound 4]
isoTOP-ABPP reactivity Q9HA64_C24 FN3KRP ([1]; 100 μM in situ 231): 20.0
isoTOP-ABPP reactivity Q5UIP0_C2298 RIF1 ([7]; 100 μM in situ 231): 20.0
isoTOP-ABPP reactivity P05091_C319 ALDH2 ([4]; 100 μM in situ 231): 20.0

SMILES: O=C(CCl)N1CCN(CC(=O)N2CCOCC2)CC1 [compound 29]
isoTOP-ABPP ratio, Q02556_C306 [9]: 1.4
isoTOP-ABPP ratio Q6PCB5_C280 ([2]; ramos): 1.4
isoTOP-ABPP ratio P05091_C319 ([4]; 200 μM, insitu, ramos): 10.5
